Experimental data published in patent EP3057949B1, “SECONDARY ALCOHOL QUINOLINYL MODULATORS OF ROR GAMMA T” (Janssen Pharmaceutica NV, priority 2013, dated 2015).

Columns and labels:
[1] = test system: IL-17 production by CD4 T cells; test: Human Th17 Assay (IL-17 production by CD4 T cells); assay type: cell-based; conditions: IL-17 in supernatant after 3 days, Th17 differentiation conditions
Excerpt: The human Thl7 assay tests the effect of RORyt modulatory compounds on IL-17 production by CD4 T cells under conditions which favor Th17 differentiation.
Total CD4^+ T cells were isolated from the peripheral blood mononuclear cells (PBMC) of healthy donors using a CD4^+ T cell isolation kit II, following the manufacturer's instructions (Miltenyi Biotec). Cells were resuspended in a medium of RPMI-1640 supplemented with 10% fetal bovine serum, penicillin, streptomycin, […], and β-mercaptoethanol and were added to 96-well plates at 1.5x10^5 per 100 µL per well. 50 µL of compound at titrated concentrations in DMSO were added into each well at final DMSO concentration at 0.2%. Cells were incubated for 1 hour, then 50 µL of Th17 cell differentiation medium was added to each well. The final concentrations of antibodies and cytokines (R&D Systems) in differentiation medium were: 3x10^6/mL anti-CD3/CD28 beads (prepared using human T cell activation/expansion kit, Miltenyi Biotec), 10 µg/mL anti-IL4, 10 µg/mL anti-IFNγ, 10 ng/mL IL1β, 10 ng/mL IL23, 50 ng/mL IL6, 3 ng/mL TGFβ and 20 U/mL IL2. Cells were cultured at 37 °C and 5% CO2 for 3 days. Supernatants were collected and the accumulated IL-17 in culture was measured by using MULTI-SPOT® Cytokine Plate following manufacture's instruction (Meso Scale Discovery). The plate was read using Sector Imager 6000, and IL-17 concentration was extrapolated from the standard curve. The IC50s were determined by GraphPad.

[2] = target: T1, human RORγt ligand binding domain (RORγt LBD) (Homo sapiens, UniProt P51449); test: ThermoFluor® Assay (RORγt thermal shift binding); conditions: 0.065 mg/mL RORγt, 60 µM 1,8-ANS, pH 7.0; estimated from concentration response curves
T1 construct: His-tag (N); TurboTEV protease cleavage site (ENLYFQG) (N); made in house; host or cells: E. coli (pHIS1, modified pET vector)
T1 sequence (P51449 258-518): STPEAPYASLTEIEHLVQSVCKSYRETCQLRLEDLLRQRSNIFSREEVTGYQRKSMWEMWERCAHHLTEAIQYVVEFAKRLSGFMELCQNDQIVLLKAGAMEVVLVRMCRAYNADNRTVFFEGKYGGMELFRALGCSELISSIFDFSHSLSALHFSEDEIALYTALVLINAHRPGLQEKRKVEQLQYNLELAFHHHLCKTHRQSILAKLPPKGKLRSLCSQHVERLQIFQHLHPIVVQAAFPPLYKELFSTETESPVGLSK
Method: This approach is applicable to a wide variety of systems, and rigorous in theoretical interpretation through quantitation of equilibrium binding constants (KD).
The shift in the melting point described as a ΔTm is proportional to the concentration and affinity of the ligand. The compound potency may be compared as a rank order of either ATm values at a single compound concentration or in terms of KD values, estimated from concentration response curves.
ThermoFluor® experiments were carried out using instruments owned by Janssen Research and Discovery, L.L.C. through its acquisition of 3-Dimensional Pharmaceuticals, Inc. 1,8-ANS (Invitrogen) was used as a fluorescent dye. Protein and compound solutions are dispensed into black 384-well polypropylene PCR microplates (Abgene) and overlayed with silicone oil (1 µL, Fluka, type DC 200) to prevent evaporation.
Bar-coded assay plates are robotically loaded onto a thermostatically controlled PCR-type thermal block and then heated at a typical ramp-rate of 1 °C/minute for all experiments. Fluorescence was measured by continuous illumination with UV light (Hamamatsu LC6) supplied via fiber optic and filtered through a band-pass filter (380-400 nm; >6 OD cutoff). Fluorescence emission of the entire 384-well plate was detected by measuring light intensity using a CCD camera (Sensys, Roper Scientific) filtered to detect 500 ± 25 nm, resulting in simultaneous and independent readings of all 384 wells. Images were collected at each temperature, and the sum of the pixel intensity in a given area of the assay plate was recorded versus temperature. Reference wells contained RORyt without compounds, and the assay conditions were as follows: • 0.065 mg/mL RORγt • 60 µM 1,8-ANS • 100 mM Hepes, pH 7.0 • 10 mM NaCl • 2.5 mM GSH • 0.002% Tween-20
Project compounds were arranged in a pre-dosed mother plate (Greiner Bio-one) wherein compounds are serially diluted in 100% DMSO by 1:2 from a high concentration of 10 mM over 12 columns within a series (column 12 is a reference well containing DMSO, no compound). The compounds were robotically dispensed directly into assay plates (1x = 46 nL) using a Hummingbird capillary liquid handling instrument (Digilab). Following compound dispense, protein and dye in buffer was added to achieve the final assay volume of 3 µL, followed by 1 µL of silicone oil.

[3] = target: T2, human RORγt LBD (Homo sapiens, UniProt P51449); test: RORγt (LBD) Reporter Assay (GAL4 luciferase, HEK293T cells); assay type: cell-based; conditions: for inhibition at 6 µM: HEK-293T; for inhibition at 6 µM / RORγt (LBD) Reporter Assay, % inhibition @ 6 µM: 6 µM compound; for IC50: compounds for 24 hours
T2 construct: expressed in transfected cells; host or cells: HEK293T
T2 sequence (P51449 258-518): T1 sequence (P51449 258-518)
Method: Compounds were assessed for RORgt functional modulation using either the RORgt ligand binding domain (LBD) reporter assay, or the RORgt full-length (FL) reporter assay.
A reporter assay was used to test functional activity of RORγt modulatory compounds on transcriptional activation driven by the RORγt LBD. Cells used in the assay were co-transfected with two constructs. The first construct, pBIND-RORγt LBD, contained the wild type human RORγt LBD fused to the DNA binding domain of the GAL4 protein. The second construct, pGL4.31 (Promega Cat no. C935A), contained multiple GAL4 responsive DNA elements upstream of firefly luciferase. […] The mutant construct was called pBIND-RORγt-AF2.
The pBIND vector contains the GAL4 DNA Binding Domain (GAL4 DBD) and the renilla luciferase gene under control of the SV40 promoter. Renilla luciferase expression serves as a control for transfection efficiency and cell viability.
The reporter assay was performed by transiently transfecting HEK293T cells with 5 µg of pBIND-RORγt LBD or pBIND-RORγt LBD-AF2 and 5 µg pGL4.31 (Promega Cat no. C935A) using Fugene 6 (Invitrogen Cat no. E2691) at a 1:6 ratio of DNA: Fugene 6 in a T-75 flask in which cells were at least 80% confluent. Twenty four hours after bulk transfection, cells were plated into 96-well plates at 50,000 cells/well in phenol-red free DMEM containing 5% Lipid Reduced FCS and Pen/Strep. Six hours after plating, cells were treated with compounds for 24 hours. Media was removed and cells were lysed with 50 µL 1x Glo Lysis Buffer (Promega). Dual Glo Luciferase Reagent (50 µL/well) was then added and firefly luciferase luminescence was read on an Envision after a ten minute incubation. Finally, Stop and Glo reagent (50 µL/well) was added and renilla luciferase luminescence was read on an Envision after a ten minute incubation. To calculate the effect of compounds on RORγt activity, the ratio of firefly to renilla luciferase was determined and plotted against compound concentration. Agonist compounds increase RORγt-driven luciferase expression, and antagonist or inverse agonist compounds decrease luciferase expression.

Compound	IC50 [1]	Kd [2]	inhibition at 6 µM [3]	IC50 [3]	IC50 ([1]; Homo sapiens, CD4+ T, 72 h)	RORγt (LBD) Reporter Assay, % inhibition @ 6 µM [3]
COc1nc2ccc(C(O)c3cnnn3C)cc2c(Cl)c1Cc1ccc(-n2cccn2)cc1 (single isomer, unassigned) [Example 5b, (3-(4-(1H-Pyrazol-1-yl)benzyl)-4-chloro-2-methoxyquinolin-6-yl)(1-methyl-1H-1,2,3-triazol-5-yl)methanol]	1.5 µM	–	–	–	–	–
COc1nc2ccc(C(O)c3cnnn3C)cc2c(Cl)c1Cc1ccc(-n2cccn2)cc1 (single isomer, unassigned) [Example 5c, (3-(4-(1H-Pyrazol-1-yl)benzyl)-4-chloro-2-methoxyquinolin-6-yl)(1-methyl-1H-1,2,3-triazol-5-yl)methanol]	0.61 µM	–	–	–	–	–
COc1nc2ccc(C(O)c3ccc(C)nc3C)cc2c(Cl)c1Cc1ccc(C(F)(F)F)cc1 (single isomer, unassigned) [Example 14b, (4-Chloro-2-methoxy-3-(4-(trifluoromethyl)benzyl)quinolin-6-yl)(2,6-dimethylpyridin-3-yl)methanol]	–	0.13 µM	97%	0.12 µM	0.17 µM	–
COc1nc2ccc(C(O)c3ccc(C)nc3C)cc2c(Cl)c1Cc1ccc(C(F)(F)F)cc1 (single isomer, unassigned) [Example 14c, (4-Chloro-2-methoxy-3-(4-(trifluoromethyl)benzyl)quinolin-6-yl)(2,6-dimethylpyridin-3-yl)methanol]	0.1 µM	0.1 µM	–	0.22 µM	–	98%
COc1nc2ccc(C(O)c3cnnn3C)cc2c(Cl)c1Cc1ccc(C(F)(F)F)cc1 (single isomer, unassigned) [Example 17b, (4-Chloro-2-methoxy-3-(4-(trifluoromethyl)benzyl)quinolin-6-yl)(1-methyl-1H-1,2,3-triazol-5-yl)methanol]	0.44 µM	0.081 µM	96%	0.24 µM	–	–
COc1nc2ccc(C(O)c3cnnn3C)cc2c(Cl)c1Cc1ccc(C(F)(F)F)cc1 (single isomer, unassigned) [Example 17c, (4-Chloro-2-methoxy-3-(4-(trifluoromethyl)benzyl)quinolin-6-yl)(1-methyl-1H-1,2,3-triazol-5-yl)methanol]	0.14 µM	0.13 µM	–	0.21 µM	–	97%

More lines, now with the values ahead:

IC50 [1]	Kd [2]	inhibition at 6 µM [3]	IC50 [3]	IC50 ([1]; Homo sapiens, CD4+ T, 72 h)	RORγt (LBD) Reporter Assay, % inhibition @ 6 µM [3]	Compound
–	0.26 µM	–	0.32 µM	0.65 µM	96%	COc1nc2ccc(C(O)c3cncn3C)cc2c(Cl)c1Cc1ccc(C(F)(F)F)cc1 (single isomer, unassigned) [Example 18c, (4-Chloro-2-methoxy-3-(4-(trifluoromethyl)benzyl)quinolin-6-yl)(1-methyl-1H-imidazol-5-yl)methanol]
–	0.19 µM	–	0.45 µM	2.6 µM	92%	Cc1ncc(C(O)c2ccc3nc(N4CCC4)c(Cc4ccc(-n5cccn5)cc4)c(Cl)c3c2)n1C (single isomer, unassigned) [Example 21c, {2-Azetidin-1-yl-4-chloro-3-[4-(1H-pyrazol-1-yl)benzyl]quinolin-6-yl}(1,2-dimethyl-1H-imidazol-5-yl)methanol]
0.0094 µM	0.055 µM	95%	0.24 µM	–	–	Cc1ncc(C(O)c2ccc3nc(N4CCC4)c(Cc4ccc(C(F)(F)F)cc4)c(Cl)c3c2)n1C (single isomer, unassigned) [Example 22b, {2-Azetidin-1-yl-4-chloro-3-[4-(trifluoromethyl)benzyl]quinolin-6-yl}(1,2-dimethyl-1H-imidazol-5-yl)methanol]
0.0029 µM	0.043 µM	–	~0.4 µM	–	96%	Cc1ncc(C(O)c2ccc3nc(N4CCC4)c(Cc4ccc(C(F)(F)F)cc4)c(Cl)c3c2)n1C (single isomer, unassigned) [Example 22c, {2-Azetidin-1-yl-4-chloro-3-[4-(trifluoromethyl)benzyl]quinolin-6-yl}(1,2-dimethyl-1H-imidazol-5-yl)methanol]
–	0.11 µM	98%	0.22 µM	0.38 µM	–	Cc1ccc(C(O)c2ccc3nc(N4CCC4)c(Cc4ccc(C(F)(F)F)cc4)c(Cl)c3c2)c(C)n1 (single isomer, unassigned) [Example 23b, {2-Azetidin-1-yl-4-chloro-3-[4-(trifluoromethyl)benzyl]quinolin-6-yl}(2,6-dimethylpyridin-3-yl)methanol]
0.48 µM	0.2 µM	–	0.28 µM	–	99%	Cc1ccc(C(O)c2ccc3nc(N4CCC4)c(Cc4ccc(C(F)(F)F)cc4)c(Cl)c3c2)c(C)n1 (single isomer, unassigned) [Example 23c, {2-Azetidin-1-yl-4-chloro-3-[4-(trifluoromethyl)benzyl]quinolin-6-yl}(2,6-dimethylpyridin-3-yl)methanol]
